Test results: the supplement of paper PMC10307832

Assays:
Experiment in all cases: relative viability (nuclei count vs DMSO), 5 days (fraction); higher = more cells survive
XMD13-2 + Tozasertib = compound: C1CC1C(=O)NC2=NNC3=C2C=CC(=C3)C4=CC(=CC=C4)C(=O)NC5CC5 [XMD13-2] + Cc1cc(Nc2cc(N3CCN(C)CC3)nc(Sc3ccc(NC(=O)C4CC4)cc3)n2)n[nH]1 [Tozasertib] (partner 0.1 µM)
Summary of the method: (§1)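 For relative viability, nuclei counts in treated wells were divided by those in vehicle wells. Lung cancer cell lines had been pin-tool dosed in 1536-well plates the day after seeding and cultured for 5 days, then fixed and stained in one step (final 0.05% Triton X-100, 1% formaldehyde, 1 ug/ml Hoechst) and imaged at 4×. Doses were one drug alone or a fixed anchor-drug dose plus five library-drug doses (not always all listed) in √10 steps, and values are duplicate-plate medians.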

ALW-II-49-7 + Bortezomib = compound: Cc1ccc(C(=O)Nc2cccc(C(F)(F)F)c2)cc1Nc1cncc(C(N)=O)c1 [ALW-II-49-7] + CC(C)C[C@H](NC(=O)[C@H](Cc1ccccc1)NC(=O)c1cnccn1)B(O)O [Bortezomib] (partner 0.002 µM)
Summary of the method: as §1

ALW-II-49-7 + Crizotinib = compound: Cc1ccc(C(=O)Nc2cccc(C(F)(F)F)c2)cc1Nc1cncc(C(N)=O)c1 [ALW-II-49-7] + C[C@@H](Oc1cc(-c2cnn(C3CCNCC3)c2)cnc1N)c1c(Cl)ccc(F)c1Cl [Crizotinib] (partner 1 µM)
Summary of the method: as §1

Dasatinib + Vorinostat = compound: Cc1nc(Nc2ncc(C(=O)Nc3c(C)cccc3Cl)s2)cc(N2CCN(CCO)CC2)n1 [Dasatinib] + O=C(CCCCCCC(=O)Nc1ccccc1)NO [Vorinostat] (partner 1 µM)
Summary of the method: as §1

Cell Line	relative viability (XMD13-2 + Tozasertib; first compound 0.05 µM)	relative viability (XMD13-2 + Tozasertib; first compound 0.1581 µM)	relative viability (XMD13-2 + Tozasertib; first compound 0.5 µM)	relative viability (XMD13-2 + Tozasertib; first compound 1.581 µM)	relative viability (XMD13-2 + Tozasertib; first compound 5 µM)	relative viability (ALW-II-49-7 + Bortezomib; first compound 0.08 µM)	relative viability (ALW-II-49-7 + Bortezomib; first compound 0.253 µM)	relative viability (ALW-II-49-7 + Bortezomib; first compound 0.8 µM)	relative viability (ALW-II-49-7 + Bortezomib; first compound 2.53 µM)	relative viability (ALW-II-49-7 + Bortezomib; first compound 8 µM)	relative viability (ALW-II-49-7 + Crizotinib; first compound 0.08 µM)	relative viability (ALW-II-49-7 + Crizotinib; first compound 0.253 µM)	relative viability (ALW-II-49-7 + Crizotinib; first compound 0.8 µM)	relative viability (ALW-II-49-7 + Crizotinib; first compound 2.53 µM)	relative viability (ALW-II-49-7 + Crizotinib; first compound 8 µM)	relative viability (Dasatinib + Vorinostat; first compound 0.005 µM)	relative viability (Dasatinib + Vorinostat; first compound 0.01581 µM)	relative viability (Dasatinib + Vorinostat; first compound 0.05 µM)	relative viability (Dasatinib + Vorinostat; first compound 0.1581 µM)	relative viability (Dasatinib + Vorinostat; first compound 0.5 µM)
ChaGo-K-1	0.234	0.214	0.254	0.222	0.258	0.769	1.23	1.1	1.18	0.864	1.13	1.12	1.08	0.972	1.04	0.735	0.737	0.704	0.565	0.47
EBC-1	–	–	–	–	–	0.543	0.508	0.474	0.513	0.39	0.176	0.177	0.203	0.171	0.182	–	–	–	–	–
EKVX	0.468	0.414	0.405	0.394	0.45	1.08	0.919	0.835	0.424	1.04	0.989	0.79	0.969	0.718	0.818	0.725	0.642	0.6	0.355	0.267
EMC-BAC-2	0.284	0.28	0.19	0.273	0.267	1.04	0.979	1.1	1.06	0.844	0.677	0.728	0.737	0.588	0.509	0.392	0.308	0.273	0.22	0.172
EPLC-272H	0.228	0.289	0.262	0.269	0.136	0.806	0.839	0.934	1.05	0.751	0.869	0.754	0.85	1.15	1	0.539	0.401	0.335	0.276	0.162
H3255	0.567	0.844	0.757	0.487	0.507	0.974	0.841	0.933	0.679	0.625	0.945	0.993	0.81	0.696	0.564	0.826	0.789	0.777	0.828	0.37
HARA	0.0933	0.117	0.106	0.0964	0.105	1.06	1.17	0.994	1.22	1.26	0.914	0.982	1.01	1.25	1.23	0.508	0.474	0.438	0.272	0.274
HCC-15	0.522	0.422	0.402	0.425	0.463	0.957	0.92	0.959	1.1	0.952	0.805	0.86	0.786	0.831	0.886	0.85	0.719	0.842	0.655	0.669
HCC-44	1.06	1.09	1.09	0.903	0.842	0.84	0.89	0.885	0.846	0.889	0.902	0.773	0.729	0.823	0.782	1.26	1.03	1.32	1.16	0.867
